From paper PMC4038399, “Experimental validation of [sequence]^comb virtual ligand screening results for eight proteins yields novel nanomolar and micromolar binders” (Journal of Cheminformatics, 2014)
Converted amounts (≈) assume the structure as drawn. Read-outs that look alike come from different tables or passages of the source.

Tests used:
[1] = target: T1, 1000001: Carboxy-terminus phosphatase domain of protein tyrosine phosphatase (2NV5) (Mus musculus, UniProt Q64487); experiment: Thermal shift (thermal melt) assay, Sypro orange; assay type: binding, M. musculus; parameters: key to Q (quality score): Q = ΔFmelt/ΔFtotal; 1 = high-quality curve, 0 = no transition; settings: for Q (quality score): ratio ΔFmelt/ΔFtotal
T1 construct: The C-terminal phosphatase domain from R. norvegicus (PDB ID: 2NV5) (1000001); New York structural genomics consortium (gift)
T1 sequence (Q64487 1331-1621): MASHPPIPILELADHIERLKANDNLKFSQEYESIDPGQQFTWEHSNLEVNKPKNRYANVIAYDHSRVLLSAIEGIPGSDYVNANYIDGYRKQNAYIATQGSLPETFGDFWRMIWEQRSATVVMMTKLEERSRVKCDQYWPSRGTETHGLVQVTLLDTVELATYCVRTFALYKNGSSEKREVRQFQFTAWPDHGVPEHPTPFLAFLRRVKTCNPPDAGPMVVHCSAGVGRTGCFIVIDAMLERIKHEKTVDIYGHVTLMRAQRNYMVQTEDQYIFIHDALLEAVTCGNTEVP
Procedure: (§1) High throughput thermal shift assays were carried out following established guidelines (Additional file 1: Table S1). Protein melting curves were obtained from samples aliquoted in 96-well plates using a RealPlex quantitative PCR instrument from Eppendorf (Eppendorf, NY, USA), with Sypro orange dye from Invitrogen as the fluorescent probe. A uniform final concentration of 5 X (supplied as a 5000 X stock solution) was used in all experiments. The dye was excited at 465 nm and emission recorded at 580 nm using the instrument’s filters. A heating ramp of 1°C/min from 25°C to 74°C was used, and one data point acquired for each degree increment. For standardization, different buffers and pH were checked. Thereafter, 100 mM HEPES pH 7.3 and 150 mM NaCl were used in all unfolding experiments. The volume of each reaction was 20 μl, and appropriate dye and protein controls were included. All experiments were done with a minimum of two replicates, with the mean value considered for further analysis. Several drugs/small molecules interact with Sypro orange and lead to aberrant signal enhancements. An additional control to rule out drug-dye interaction was carried out with all the constituents kept constant except for the protein of interest. The protein/protein-drug curves were reported after subtracting the respective dye alone/drug-dye curves.
(§2) Each melting curve was assigned a quality score (Q), the ratio of the melting-associated increase in fluorescence (ΔFmelt) to the total fluorescence range (ΔFtotal). Q = 1 is a high-quality curve, while Q = 0 indicates no thermal transition. Though an arbitrary Q value cutoff was not applied to judge curve quality, the curves were manually curated with Q values reported. […] These were ignored (see Table 1).
(§3) Subsequent to standardization, (see SI Methods), the validity of the top 1% of […]^comb’s predictions on the test set of eight diverse proteins was examined. To be conservative, we focused only on those protein/ligand pairs showing single sigmoidal thermal transition curves. The fit to Boltzmann’s equation (Eq. 1) was employed to estimate the melting temperature from the observed intensity, I.
(§4) (4) I=Imin+Imax-Imin/1+e^Tm-T/a
(§5) Imin and Imax are the minimum and maximum intensities; a denotes the slope of the curve at the transition midpoint temperate, Tm. To estimate thermodynamic parameters, both van’t Hoff and Gibbs-Helmholtz analyses were done. To estimate the approximate ligand-binding affinity at Tm, Eq. (2) from reference was used with slight modifications; ΔCp is ignored.
(§6) (5) KLTm=exp-ΔH/R1/Tm-1/To/L
(§7) KL(Tm) is the ligand association constant and [L] is the free ligand concentration at Tm ([LTm] ~ [L]total, when [L]total > > the total concentration of protein. KD is the inverse of KL(Tm).
(§8) Thermal unfolding of the eight benchmark proteins was carried out in a 20 μl reaction mix with 100 mM HEPES pH 7.3, 150 mM NaCl, 5 X Sypro orange dye, 10 μM protein and 1 mM of all the predicted ligands.

[2] = target: T2, 1000006: catalytic domain of protein tyrosine phosphatase (2G59) (Homo sapiens, UniProt Q16827); experiment: Thermal shift (thermal melt) assay, Sypro orange; assay type: binding, H. sapiens; settings: for Q (quality score): ratio ΔFmelt/ΔFtotal
T2 construct: the catalytic domain of PTP from H. sapiens (PDB ID: 2G59) (1000006); New York structural genomics consortium (gift)
T2 sequence (Q16827 938-1195 limits assumed): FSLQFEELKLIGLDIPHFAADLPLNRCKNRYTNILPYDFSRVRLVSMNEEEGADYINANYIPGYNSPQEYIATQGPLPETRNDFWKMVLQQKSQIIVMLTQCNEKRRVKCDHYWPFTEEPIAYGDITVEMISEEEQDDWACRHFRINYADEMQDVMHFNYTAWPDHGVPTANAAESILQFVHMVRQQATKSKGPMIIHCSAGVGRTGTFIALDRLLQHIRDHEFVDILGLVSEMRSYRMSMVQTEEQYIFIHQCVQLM
Procedure: as §1, §2, §3, §4, §5, §6, §7, §8

[3] = system: HCT-116 colon carcinoma cell line; experiment: Cytotoxic assay on cancer cell line; assay type: cell-based
Procedure: Antimicrobial and anti-cancer tests were performed as in [80].

[4] = target: E. coli dihydrofolate reductase (DHFR) (Escherichia coli, UniProt P0ABQ4); experiment: biochemical; assay type: binding; settings: for Q (quality score): ratio ΔFmelt/ΔFtotal of the melting curve; for ΔTm: thermal shift, in °C (unit assumed)
Chain of E. coli dihydrofolate reductase (DHFR) (P0ABQ4 whole entry): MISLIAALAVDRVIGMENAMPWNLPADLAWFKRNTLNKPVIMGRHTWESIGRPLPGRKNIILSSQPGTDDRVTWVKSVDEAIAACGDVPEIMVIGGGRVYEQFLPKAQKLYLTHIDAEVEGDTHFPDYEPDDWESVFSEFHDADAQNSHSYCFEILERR
Procedure: as §1, with “The dye was excited at 465 nm and emission recorded at 580 nm using the instrument’s filters. A heating ramp of 1°C/min from 25°C to 74°C was used, and one data point acquired for each degree increment.” left out
Each melting curve was assigned a quality score (Q), the ratio of the melting-associated increase in fluorescence (ΔFmelt) to the total fluorescence range (ΔFtotal). Q = 1 is a high-quality curve, while Q = 0 indicates no thermal transition. Though an arbitrary Q value cutoff was not applied to judge curve quality, the curves were manually curated with Q values reported.
as §3, §4, §5, §6, §7, §8

[5] = Table S4, protein 1000001, computed from the thermal shifts obtained, read-out: KD (Approx)
[6] = Table S4, protein 1000001, in °C (unit assumed)
[7] = Table S6, 1000001, known binders of 1000001, in °C (unit assumed)
[8] = Table S6, known binders of 1000001 tested on 1000006, in °C (unit assumed)
[9] = Table S4, protein 1000006, computed from the thermal shifts obtained, read-out: KD (Approx)
[10] = Table S4, protein 1000006, in °C (unit assumed)
[11] = Table S3, computed from the thermal shifts obtained, read-out: KD (Approx)
[12] = approximate, computed from the thermal shift, read-out: KD

O=S(=O)(O)c1ccc(N=Nc2ccccc2)cc1 [NSC 1847]
Kd [1, 5]: ~43800 nM
ΔTm [1, 6]: 4.1
Q (quality score) ([1]; Table S4, protein 1000001): 0.5
ΔTm [1, 7]: 4.23
ΔTm [2, 8]: 0

Nc1cc(-c2ccccc2)ccc1O [NSC 7950]
Kd [2, 9]: ~271000 nM
ΔTm [2, 10]: 1.22
Q (quality score) ([2]; Table S4, protein 1000006): 0.3

COc1cc(C(=O)C(=O)c2ccc(O)c(OC)c2)ccc1O [NSC 16722]
Kd [2, 9]: ~107000 nM
ΔTm [2, 10]: 3.09
Q (quality score) ([2]; Table S4, protein 1000006): 0.4

CCOc1ccc(Nc2c3ccccc3nc3ccccc23)cc1 [NSC 30205]
Kd [1, 5]: ~6850 nM
ΔTm [1, 6]: 7.3
Q (quality score) ([1]; Table S4, protein 1000001): 0.01
ΔTm [1, 7]: 9.91
HCT-116 (IC-50) ([3]; inhibitory concentration for 50% growth inhibition, listed as 30205): 0.146 µg/mL
HCT-116 (IC-50) ([3]; inhibitory concentration for 50% growth inhibition, listed as NSC30205): 0.15 µg/mL
ΔTm ([2]; Table S6, known binders of 1000001 tested on 1000006): Ambiguous

Cc1ccc(N=Nc2ccc(N)cc2C)c(S(N)(=O)=O)c1 [NSC 45527]
Kd [1, 5]: ~567 nM
ΔTm [1, 6]: 11.7
Q (quality score) ([1]; Table S4, protein 1000001): 0.04
ΔTm [1, 7]: 11.79
ΔTm [2, 8]: 5.48

O=C(Nc1ccc(Oc2ccc(NC(=O)Nc3ccc([N+](=O)[O-])cc3)cc2)cc1)Nc1ccc([N+](=O)[O-])cc1 [NSC 80735]
HCT-116 (IC-50) ([3]; Table S3): 10.9
IC50 against HCT-116 ([3]; as worded): 10.9 µg/mL (≈ 20.6 µM)
Kd [4, 11]: ~1710 nM
Q (quality score) ([4]; Table S3): 0.3
ΔTm ([4]; Table S3): 18.16
Kd [4, 12]: 1700 nM

Nc1cc([N+](=O)[O-])ccc1Nc1ccc(O)cc1 [NSC 92794]
HCT-116 (IC-50) ([3]; inhibitory concentration for 50% growth inhibition, listed as 92794): 9.78 µg/mL
HCT-116 (IC-50) ([3]; inhibitory concentration for 50% growth inhibition, listed as NSC92794): 9.8 µg/mL
Kd [2, 9]: ~162000 nM
ΔTm [2, 10]: 2.26
Q (quality score) ([2]; Table S4, protein 1000006): 0.004
Kd [2, 12]: 162000 nM

C1=Cc2ccccc2Nc2ccccc21 [NSC 123458]
Kd [4, 11]: ~5640 nM
Q (quality score) ([4]; Table S3): 0.6
ΔTm ([4]; Table S3): 14.17

COc1cc(NCc2ccccc2O)c2ncccc2c1 [NSC 130801]
Kd [4, 11]: ~75000 nM
Q (quality score) ([4]; Table S3): 1.1
ΔTm ([4]; Table S3): 5.84

Nc1ccc(Oc2ccc(N)c([N+](=O)[O-])c2)cc1[N+](=O)[O-] [NSC 133351]
Kd [2, 9]: ~168 nM
Q (quality score) ([2]; Table S4, protein 1000006): 0.1
Kd ([2]; approximate, computed from the thermal shift, listed as 133351, read-out: KD): 168 nM
Kd ([2]; approximate, computed from the thermal shift, listed as NSC133351, read-out: KD): ~168 nM
ΔTm ([2]; thermal shift, 1 mM ligand, 10 μM protein): 16.76 °C

NS(=O)(=O)c1ccc(N=Nc2c(O)c(C(=O)O)cc3ccccc23)cc1 [NSC 134137]
Kd [1, 5]: ~406 nM
Q (quality score) ([1]; Table S4, protein 1000001): 0.01
ΔTm [1, 7]: 11.33
Kd ([1]; approximate, computed from the thermal shift, listed as 134137, read-out: KD): 406 nM
Kd ([1]; approximate, computed from the thermal shift, listed as NSC134137, read-out: KD): ~406 nM
ΔTm ([1]; thermal shift, 1 mM ligand, 10 μM protein, listed as 134137): 12.30 °C
ΔTm ([1]; thermal shift, 1 mM ligand, 10 μM protein, listed as NSC134137): ~ 12 °C
ΔTm [2, 8]: 1.36

COc1cc(N=Nc2ccccc2C(=O)O)ccc1O [NSC 153172]
Kd [1, 5]: ~2190 nM
ΔTm [1, 6]: 9.3
Q (quality score) ([1]; Table S4, protein 1000001): 0.1
ΔTm [1, 7]: 9.70
ΔTm [2, 8]: 5.48

O=C(O)Cc1ccc(N=Nc2c(O)c(C(=O)O)cc3ccccc23)cc1 [NSC 156563]
Kd [1, 5]: ~1320 nM
ΔTm [1, 6]: 10.2
Q (quality score) ([1]; Table S4, protein 1000001): 0.004
ΔTm [1, 7]: 10.66
ΔTm [2, 8]: 5.36

CC(C)=C(c1ccc(Cl)cc1)c1c(N)ncnc1N [NSC 157522]
Kd [4, 11]: ~19500 nM
Q (quality score) ([4]; Table S3): 0.4
ΔTm ([4]; Table S3): 10.13

O=C(Nc1ccc(C(=O)O)c(O)c1)c1ccccc1 [NSC 159686]
Kd [4]: ~12700 nM
Q (quality score) ([4]; Table S3): 0.6

N/C(CC(=O)Nc1cc(C(F)(F)F)ccc1Cl)=N\O [NSC 379536]
Kd [4, 11]: ~28900 nM
Q (quality score) ([4]; Table S3): 0.3
ΔTm ([4]; Table S3): 8.86

Nc1nc2[nH]cc(CCc3ccc(C(=O)N[C@@H](CCC(=O)O)C(=O)O)cc3)c2c(=O)[nH]1 [NSC 698037, pemetrexed, reference compound]
Q (quality score) ([4]; Table S3): 1.3

C#CCC(Cc1cnc2nc(N)nc(N)c2n1)c1ccc(C(=O)N[C@@H](CCC(=O)O)C(=O)O)cc1 (stereo partly shown) [NSC 754230, pralatrexate, reference compound]
IC50 ([3]; Homo sapiens, HCT-116, inhibitory concentration for 50% growth inhibition, read-out: HCT-116 (IC-50)): < 0.031 µg/mL
Kd [4, 11]: ~499 nM
Q (quality score) ([4]; Table S3): 0.1
